Source: patent publication US4327210A, “Thiazolylacelamide cephalosporins” (Hoffmann-La Roche Inc., priority 1978, dated 1982)
≈ marks a conversion by molar mass, not a printed value.

Key:
Escherichia coli [1] = assay: In vivo activity in mice infected intraperitoneally with Escherichia coli; conditions: sc, 96 h, read-out: CD50 (dose with which 50% of the test animals survive); mice infected i.p. with Escherichia coli; s.c. 1, 2 1/2 and 4 hours after infection; survival on fourth day; by interpolation
Method: Groups of 5 mice are infected intraperitoneally with an aqueous suspension of Escherichia coli. The test substance is administered subcutaneously in physiological common salt solution three times, i.e. 1 hour, 21/2 hours and 4 hours, after the infection. The number of surviving animals is determined on the fourth day.

Proteus rettgeri = assay: In vitro antimicrobial activity (minimum inhibitory concentration); assay type: cell-based; conditions: Providencia rettgeri
Text: (§1) In vitro activity: minimum inhibitory concentration (μg/ml)

Escherichia coli [2] = assay: as above; assay type: cell-based
Text: as §1

Staphylococcus aureus = assay: as above; assay type: cell-based
Text: as §1

Klebsiella pneumoniae = assay: as above; assay type: cell-based
Text: as §1

Serratia marcescens = assay: as above; assay type: cell-based
Text: as §1

Haemophilus influenzae = assay: as above; assay type: cell-based
Text: as §1

Proteus mirabilis = assay: as above; assay type: cell-based
Text: as §1

Pseudomonas aeruginosa = assay: as above; assay type: cell-based
Text: as §1

Proteus vulgaris = assay: as above; assay type: cell-based
Text: as §1

[3] = ATCC6538, Staphylococcus aureus strain ATCC 6538
[4] = Staphylococcus aureus pencillin-resistant strain
[5] = Haemophilus influenzae strain 1
[6] = Haemophilus influenzae strain 2
[7] = Haemophilus influenzae strain 3
[8] = Haemophilus influenzae strain 4
[9] = Haemophilus influenzae strain 5
[10] = Haemophilus influenzae strain 6
[11] = Haemophilus influenzae strain 7
[12] = Pseudomonas aeruginosa strain 1
[13] = Pseudomonas aeruginosa strain 2
[14] = Pseudomonas aeruginosa strain 3
[15] = Pseudomonas aeruginosa strain 4
[16] = Pseudomonas aeruginosa strain 5
[17] = Pseudomonas aeruginosa strain 6
[18] = Pseudomonas aeruginosa strain 7

## CO/N=C(\C(=O)N[C@@H]1C(=O)N2C(C(=O)O)=C(CSc3nc(=O)c(O)nn3C)CS[C@H]12)c1csc(N)n1 [Product A]
Escherichia coli [1]
  ED50: ≤ 0.005 mg/kg
Proteus rettgeri
  MIC: ≤ 0.01 µg/mL
Escherichia coli [2]; Escherichia coli strain 1
  MIC: 0.02 µg/mL (≈ 0.0361 µM)
Escherichia coli [2]; Escherichia coli strain 2
  MIC: 0.6 µg/mL (≈ 1.08 µM)
Staphylococcus aureus; [3]
  MIC: 2.5 µg/mL (≈ 4.51 µM)
Staphylococcus aureus; [4]
  MIC: 2.5 µg/mL (≈ 4.51 µM)
Klebsiella pneumoniae
  MIC: 1.2 µg/mL (≈ 2.16 µM)
Serratia marcescens
  MIC: 0.08 µg/mL (≈ 0.144 µM)
Haemophilus influenzae; [5]
  MIC: 0.08 µg/mL (≈ 0.144 µM)
Haemophilus influenzae; [6]
  MIC: 0.005 µg/mL (≈ 0.00902 µM)
Haemophilus influenzae; [7]
  MIC: 0.005 µg/mL (≈ 0.00902 µM)
Haemophilus influenzae; [8]
  MIC: 0.005 µg/mL (≈ 0.00902 µM)
Haemophilus influenzae; [9]
  MIC: 0.0025 µg/mL (≈ 0.00451 µM)
Haemophilus influenzae; [10]
  MIC: 0.0025 µg/mL (≈ 0.00451 µM)
Haemophilus influenzae; [11]
  MIC: 0.0025 µg/mL (≈ 0.00451 µM)
Proteus mirabilis; Proteus mirabilis strain 1
  MIC: ≤ 0.01 µg/mL
Proteus mirabilis; Proteus mirabilis strain 2
  MIC: ≤ 0.01 µg/mL
Pseudomonas aeruginosa; [12]
  MIC: 0.3 µg/mL (≈ 0.541 µM)
Pseudomonas aeruginosa; [13]
  MIC: 10 µg/mL (≈ 18 µM)
Pseudomonas aeruginosa; [14]
  MIC: 2.5 µg/mL (≈ 4.51 µM)
Pseudomonas aeruginosa; [15]
  MIC: 5 µg/mL (≈ 9.02 µM)
Pseudomonas aeruginosa; [16]
  MIC: 5 µg/mL (≈ 9.02 µM)
Pseudomonas aeruginosa; [17]
  MIC: 10 µg/mL (≈ 18 µM)
Pseudomonas aeruginosa; [18]
  MIC: 5 µg/mL (≈ 9.02 µM)
Proteus vulgaris
  MIC: ≤ 0.01 µg/mL

## CO/N=C(\C(=O)N[C@@H]1C(=O)N2C(C(=O)O)=C(CSc3nc(=O)c(O)nn3C)CS[C@H]12)c1csc(NC(=O)CCl)n1 [Product B, (6R,7R)-7-[2-[2-(2-Chloroacetamido)-4-thiazolyl]-2-(Z-methoxyimino)acetamido]-3-[[(2,5-dihydro-6-hydroxy-2-methyl-5-oxo-as-triazin-3-yl)thiol]methyl]-8-oxo-5-thia-1-azabicyclo[4.2.0]oct-2-ene-2-carboxylic acid]
Escherichia coli [1]
  ED50: 0.16 mg/kg
Proteus rettgeri
  MIC: 0.16 µg/mL (≈ 0.254 µM)
Escherichia coli [2]; Escherichia coli strain 1
  MIC: 0.16 µg/mL (≈ 0.254 µM)
Escherichia coli [2]; Escherichia coli strain 2
  MIC: 5 µg/mL (≈ 7.92 µM)
Staphylococcus aureus; [3]
  MIC: 2.5 µg/mL (≈ 3.96 µM)
Staphylococcus aureus; [4]
  MIC: 5 µg/mL (≈ 7.92 µM)
Klebsiella pneumoniae
  MIC: 10 µg/mL (≈ 15.8 µM)
Serratia marcescens
  MIC: 2.5 µg/mL (≈ 3.96 µM)
Haemophilus influenzae; [5]
  MIC: 1.2 µg/mL (≈ 1.9 µM)
Haemophilus influenzae; [6]
  MIC: 0.3 µg/mL (≈ 0.475 µM)
Haemophilus influenzae; [7]
  MIC: 0.16 µg/mL (≈ 0.254 µM)
Haemophilus influenzae; [8]
  MIC: 0.16 µg/mL (≈ 0.254 µM)
Haemophilus influenzae; [9]
  MIC: 0.08 µg/mL (≈ 0.127 µM)
Haemophilus influenzae; [10]
  MIC: 0.16 µg/mL (≈ 0.254 µM)
Haemophilus influenzae; [11]
  MIC: 0.16 µg/mL (≈ 0.254 µM)
Proteus mirabilis; Proteus mirabilis strain 1
  MIC: 0.08 µg/mL (≈ 0.127 µM)
Proteus mirabilis; Proteus mirabilis strain 2
  MIC: 0.16 µg/mL (≈ 0.254 µM)
Pseudomonas aeruginosa; [12]
  MIC: 1.2 µg/mL (≈ 1.9 µM)
Pseudomonas aeruginosa; [13]
  MIC: > 80 µg/mL
Pseudomonas aeruginosa; [14]
  MIC: 40 µg/mL (≈ 63.4 µM)
Pseudomonas aeruginosa; [15]
  MIC: 80 µg/mL (≈ 127 µM)
Pseudomonas aeruginosa; [16]
  MIC: 80 µg/mL (≈ 127 µM)
Pseudomonas aeruginosa; [17]
  MIC: 80 µg/mL (≈ 127 µM)
Pseudomonas aeruginosa; [18]
  MIC: 80 µg/mL (≈ 127 µM)
Proteus vulgaris
  MIC: 0.16 µg/mL (≈ 0.254 µM)
In vivo; iv
  LD50: 250 to 500 mg/kg
In vivo; po
  LD50: > 5000 mg/kg
In vivo; sc
  LD50: 2000 to 4000 mg/kg
